Measured values as given in the NIST ThermoML archive (doi:10.1016/j.jct.2008.02.020).
± gives the expanded uncertainty stated by the source.

Conditions: Liquid, Buoyancy - hydrostatic balance with magnetic suspension - one sinker

Brc1ccccc1 [bromobenzene]
Conditions	mass density [kg/m3]
248.15 K, 99.7 kPa	1554.49 ± 0.68
248.15 K, 1231.4 kPa	1555.37 ± 0.68
248.15 K, 2075.4 kPa	1556.04 ± 0.68
248.15 K, 4196.2 kPa	1557.7 ± 0.68
248.15 K, 5951 kPa	1559.05 ± 0.68
248.15 K, 8068.3 kPa	1560.67 ± 0.68
248.15 K, 10015 kPa	1562.11 ± 0.68
248.15 K, 11952 kPa	1563.58 ± 0.69
248.15 K, 13995 kPa	1565.09 ± 0.69
248.15 K, 15940 kPa	1566.53 ± 0.69
248.15 K, 18145 kPa	1568.12 ± 0.69
248.15 K, 19946 kPa	1569.42 ± 0.69
248.15 K, 21965 kPa	1570.86 ± 0.69
248.15 K, 24136 kPa	1572.41 ± 0.69
248.15 K, 25865 kPa	1573.62 ± 0.69
248.15 K, 27917 kPa	1575.05 ± 0.69
248.15 K, 29850 kPa	1576.39 ± 0.69
273.15 K, 100.51 kPa	1520.56 ± 0.66
273.15 K, 1116.3 kPa	1521.45 ± 0.66
273.15 K, 2128.1 kPa	1522.34 ± 0.66
273.15 K, 4045.8 kPa	1524.03 ± 0.66
273.15 K, 5967.3 kPa	1525.66 ± 0.66
273.15 K, 8142.8 kPa	1527.52 ± 0.66
273.15 K, 10020 kPa	1529.11 ± 0.66
273.15 K, 11896 kPa	1530.68 ± 0.66
273.15 K, 13922 kPa	1532.35 ± 0.66
273.15 K, 16083 kPa	1534.13 ± 0.67
273.15 K, 18195 kPa	1535.83 ± 0.67
273.15 K, 20035 kPa	1537.31 ± 0.67
273.15 K, 21829 kPa	1538.75 ± 0.67
273.15 K, 23856 kPa	1540.34 ± 0.67
273.15 K, 25976 kPa	1542.02 ± 0.67
273.15 K, 28098 kPa	1543.65 ± 0.67
273.15 K, 29947 kPa	1545.09 ± 0.67
293.15 K, 101.93 kPa	1493.56 ± 0.64
293.15 K, 1239.7 kPa	1494.68 ± 0.64
293.15 K, 2010.7 kPa	1495.41 ± 0.64
293.15 K, 4059.7 kPa	1497.37 ± 0.64
293.15 K, 6007.9 kPa	1499.22 ± 0.64
293.15 K, 8079.8 kPa	1501.16 ± 0.64
293.15 K, 10001 kPa	1502.94 ± 0.64
293.15 K, 11960 kPa	1504.73 ± 0.65
293.15 K, 14169 kPa	1506.73 ± 0.65
293.15 K, 15879 kPa	1508.27 ± 0.65
293.15 K, 17960 kPa	1510.11 ± 0.65
293.15 K, 19999 kPa	1511.9 ± 0.65
293.15 K, 21880 kPa	1513.53 ± 0.65
293.15 K, 24122 kPa	1515.46 ± 0.65
293.15 K, 26141 kPa	1517.17 ± 0.65
293.15 K, 28060 kPa	1518.79 ± 0.65
293.15 K, 29993 kPa	1520.42 ± 0.66
313.15 K, 102.54 kPa	1466.55 ± 0.62
313.15 K, 2000.8 kPa	1468.59 ± 0.62
313.15 K, 4011 kPa	1470.71 ± 0.62
313.15 K, 6189.6 kPa	1473 ± 0.62
313.15 K, 7991.6 kPa	1474.86 ± 0.62
313.15 K, 10089 kPa	1477.01 ± 0.63
313.15 K, 12143 kPa	1479.06 ± 0.63
313.15 K, 14015 kPa	1480.93 ± 0.63
313.15 K, 16087 kPa	1482.94 ± 0.63
313.15 K, 18047 kPa	1484.85 ± 0.63
313.15 K, 20004 kPa	1486.73 ± 0.63
313.15 K, 22154 kPa	1488.76 ± 0.63
313.15 K, 23944 kPa	1490.45 ± 0.64
313.15 K, 26100 kPa	1492.42 ± 0.64
313.15 K, 28042 kPa	1494.21 ± 0.64
313.15 K, 29906 kPa	1495.9 ± 0.64
333.15 K, 100.42 kPa	1439.38 ± 0.6
333.15 K, 1115 kPa	1440.6 ± 0.6
333.15 K, 1943.4 kPa	1441.57 ± 0.6
333.15 K, 4094.5 kPa	1444.1 ± 0.6
333.15 K, 6114.2 kPa	1446.44 ± 0.61
333.15 K, 7927.8 kPa	1448.51 ± 0.61
333.15 K, 10022 kPa	1450.84 ± 0.61
333.15 K, 11958 kPa	1453 ± 0.61
333.15 K, 13999 kPa	1455.24 ± 0.61
333.15 K, 16049 kPa	1457.44 ± 0.61
333.15 K, 18156 kPa	1459.68 ± 0.61
333.15 K, 20008 kPa	1461.63 ± 0.62
333.15 K, 22158 kPa	1463.84 ± 0.62
333.15 K, 24130 kPa	1465.86 ± 0.62
333.15 K, 26094 kPa	1467.85 ± 0.62
333.15 K, 28018 kPa	1469.76 ± 0.62
333.15 K, 29890 kPa	1471.61 ± 0.62
353.15 K, 99.8 kPa	1411.94 ± 0.58
353.15 K, 1173.8 kPa	1413.37 ± 0.59
353.15 K, 1944.3 kPa	1414.39 ± 0.59
353.15 K, 3949.8 kPa	1417.01 ± 0.59
353.15 K, 5968.9 kPa	1419.61 ± 0.59
353.15 K, 7990.5 kPa	1422.16 ± 0.59
353.15 K, 9916 kPa	1424.56 ± 0.59
353.15 K, 11987 kPa	1427.09 ± 0.59
353.15 K, 14135 kPa	1429.67 ± 0.6
353.15 K, 15921 kPa	1431.8 ± 0.6
353.15 K, 18146 kPa	1434.39 ± 0.6
353.15 K, 19874 kPa	1436.37 ± 0.6
353.15 K, 22180 kPa	1438.99 ± 0.6
353.15 K, 23964 kPa	1440.98 ± 0.6
353.15 K, 26085 kPa	1443.32 ± 0.6
353.15 K, 28122 kPa	1445.53 ± 0.61
